From patent US20070054258A1, “Method of removing mucus and cell treatment solution and preservative solution used therefor” (SYSMEX CORPORATION, priority 2003, published 2007)

How the values were obtained:
Assay type in all cases: cell-based
squamous cells = experiment: Staining with fluorescent-labeled anti-NMP 179 antibody after treatment; conditions: cells treated with 5 mass % AcCys (FIG. 8)
Description: Squamous cells which were not treated with AcCys and squamous cells which were treated with 5 mass % AcCys were stained with a fluorescent-labeled anti-NMP 179 antibody which reacts with cells derived from uterine cervix except for normal uterine cervix squamous cells, and observed under a microscope to give each result of fluorescent image in FIG. 7 and FIG. 8.

[1] = tested on: cell populations in a clinical specimen derived from uterine cervix; experiment: Effect of removing mucus in clinical specimens of uterine cervix for cytodiagnosis (Giemsa stain, light microscope)
Description: Cell populations in a clinical specimen derived from uterine cervix which had been stored in 30 to 60 mass % methanol-based, buffered preservative solution (PreservCyt® manufactured by Cytyc Corporation) was transferred to a 1.5 ml centrifuge tube (about 1×10^5 cells/sample).
The solution was centrifuged (10000 rpm; 1 minute; 4° C.) to separate cells, and the supernatant was removed.
To the cells thus collected was added 1 ml of a mixture (hereinafter referred to as PBS-T) of 0.1% Tween 20 (Sigma) and 0.01M phosphate buffer (PBS available from Sigma; pH7.4) and the cells were resuspended.
The cells were washed by another centrifugation (10000 rpm, 1 minute, 4° C.) for cell separation, removal of the supernatant and cell collection. The cells washed were resuspended in 500 μl of the preservative solution.
10 mass % aqueous solution of N-acetyl-L-cysteine (hereinafter referred to as AcCys) was prepared for a cell treatment solution. This cell treatment solution was added to the cell suspension obtained from the above, and samples of B to E were prepared so that the AcCys concentrations in the samples were 0.625 mass %, 1.25 mass % or 5 mass %.
The solution obtained after the reaction was finished was then centrifuged (10000 rpm; 1 minute; 4° C.) to separate cells, and the supernatant was removed and cells were collected.
The cells were washed by resuspension in 1 ml of PBS-T, another centrifugation (10000 rpm; 1 minute, 4° C.) for cell separation, and removal of the supernatant. This washing procedure was repeated two times.
The cells collected were suspended in 300 μl of 100% methanol and mounted on a glass slide by using Cytospin. Then, cells on the slide were stained with 5% Giemsa Stain Solution (Sysmex) for 15 minutes, washed thoroughly with PBS, and observed under a light microscope to give micrographs of FIG. 1 to 5 for each sample of A to E. […]

[2] = tested on: cell populations of clinical specimen; experiment: Effect of the cell treatment solution on cell morphology; conditions: 5 minutes compared with 1 minute
Description: The cell treatment solutions containing L-cysteine at concentrations of 5 mass %, 10 mass % and 20 mass % were used to treat cell populations of clinical specimen for 1 minute or 5 minutes in the same manner of the above, and the cells were observed. The results of each sample treated with the solutions containing 5 mass %, 10 mass % and 20 mass % L-cysteine for 1 minute and 5 minutes were shown in FIG. 9 to FIG. 14.

In the case of `CC(=O)N[C@@H](CS)C(=O)O` [AcCys, N-acetyl-L-cysteine], the “specificity of fluorescent anti-NMP179 antibody staining” value (squamous cells) is reported as “specific staining”, the “mucus part (black clumps) after treatment” value (from here on “mucus part (black clumps)”) ([1]; AcCys 5 mass % (Sample E), room temperature, 1 minute) is reported as “black clumps showing mucus part were disappeared” and the “mucus part (black clumps)” value ([1]; AcCys 5 mass % (Sample F), reaction time 24 hours) is reported as “black clumps showing mucus part were disappeared”. For the same compound, the “mucus part (black clumps)” value ([1]; AcCys under 5 mass % (Samples B to D), room temperature, 1 minute) was “there remained black clumps which showed mucus part”.
In the case of `N[C@@H](CS)C(=O)O` [L-cysteine], the “effect on cell morphology” value ([2]; 5 mass % L-cysteine) is reported as “did not affect the cell morphology”, the “effect on cell morphology” value ([2]; 10 mass % L-cysteine) is reported as “did not affect the cell morphology” and the “effect on cell morphology” value ([2]; 20 mass % L-cysteine) is reported as “did not affect the cell morphology”.
